Data on 2 compounds can be found in ChEMBL document CHEMBL2380231, “X-ray crystal structure of ERK5 (MAPK7) in complex with a specific inhibitor” (J Med Chem, 2013).

What all share (format): cell-based
The target in experiment [1] is T1, Mitogen-activated protein kinase; ERK1/ERK2 (Homo sapiens) (UniProt P27361+P28482). As to the kind of experiment: Inhibition of total ERK1/ERK2 in sorbitol-stimulated human HeLa cells at 0.04 to 5 uM incubated for 1 hr prior to sorbitol stimulation measured after 30 mins by Western blot analysis. In general terms: In western blotting, separated proteins are transferred to a membrane and probed.

Experiment [2] concerns the target T1, Mitogen-activated protein kinase; ERK1/ERK2 (Homo sapiens). The experiment in a line: Inhibition of ERK1/ERK2 phosphorylation in sorbitol-stimulated human HeLa cells at 0.04 to 5 uM incubated for 1 hr prior to sorbitol stimulation measured after 30 mins by Western blot analysis.
Experiment [3] deals with T2, Mitogen-activated protein kinase 7 (Homo sapiens, UniProt Q13164). The experiment in a line: Inhibition of ERK5 autophosphorylation in sorbitol-stimulated human HeLa cells at 0.04 to 5 uM incubated for 1 hr prior to sorbitol stimulation measured after 30 mins by Western blot analysis.
Target sequence in this assay (Q13164 2-816 limits assumed): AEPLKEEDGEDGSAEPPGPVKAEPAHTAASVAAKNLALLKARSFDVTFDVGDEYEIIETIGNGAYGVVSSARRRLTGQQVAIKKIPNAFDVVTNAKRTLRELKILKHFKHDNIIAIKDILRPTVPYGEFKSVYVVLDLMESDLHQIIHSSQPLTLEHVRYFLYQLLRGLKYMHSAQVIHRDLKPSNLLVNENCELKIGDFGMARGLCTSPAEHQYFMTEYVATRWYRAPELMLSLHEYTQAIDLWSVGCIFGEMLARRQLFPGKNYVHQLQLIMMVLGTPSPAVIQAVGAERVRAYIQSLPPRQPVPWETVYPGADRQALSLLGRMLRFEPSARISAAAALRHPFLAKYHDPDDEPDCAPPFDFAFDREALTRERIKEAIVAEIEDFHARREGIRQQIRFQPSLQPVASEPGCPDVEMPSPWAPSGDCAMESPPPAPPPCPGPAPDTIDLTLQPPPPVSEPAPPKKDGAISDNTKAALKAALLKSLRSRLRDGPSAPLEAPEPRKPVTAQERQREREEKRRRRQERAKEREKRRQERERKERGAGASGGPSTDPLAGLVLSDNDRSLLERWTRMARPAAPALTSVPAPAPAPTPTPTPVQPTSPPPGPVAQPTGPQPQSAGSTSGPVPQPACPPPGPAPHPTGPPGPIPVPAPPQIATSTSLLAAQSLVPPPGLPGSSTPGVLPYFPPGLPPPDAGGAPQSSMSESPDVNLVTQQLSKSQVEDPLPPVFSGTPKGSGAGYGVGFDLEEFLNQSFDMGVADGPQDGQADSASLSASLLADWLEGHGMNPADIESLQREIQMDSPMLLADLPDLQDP
In experiment [4] the target is T2, Mitogen-activated protein kinase 7. The experiment in a line: Inhibition of GST-tagged full length human ERK5 transfected in HEK293 cells assessed as inhibition of AP1 transcriptional activity after 24 hrs by dual luciferase reporter gene assay. In general terms: Reporter assays use an easily measured gene product as a stand-in for the process of interest.
Target sequence in this assay (Q13164 whole entry): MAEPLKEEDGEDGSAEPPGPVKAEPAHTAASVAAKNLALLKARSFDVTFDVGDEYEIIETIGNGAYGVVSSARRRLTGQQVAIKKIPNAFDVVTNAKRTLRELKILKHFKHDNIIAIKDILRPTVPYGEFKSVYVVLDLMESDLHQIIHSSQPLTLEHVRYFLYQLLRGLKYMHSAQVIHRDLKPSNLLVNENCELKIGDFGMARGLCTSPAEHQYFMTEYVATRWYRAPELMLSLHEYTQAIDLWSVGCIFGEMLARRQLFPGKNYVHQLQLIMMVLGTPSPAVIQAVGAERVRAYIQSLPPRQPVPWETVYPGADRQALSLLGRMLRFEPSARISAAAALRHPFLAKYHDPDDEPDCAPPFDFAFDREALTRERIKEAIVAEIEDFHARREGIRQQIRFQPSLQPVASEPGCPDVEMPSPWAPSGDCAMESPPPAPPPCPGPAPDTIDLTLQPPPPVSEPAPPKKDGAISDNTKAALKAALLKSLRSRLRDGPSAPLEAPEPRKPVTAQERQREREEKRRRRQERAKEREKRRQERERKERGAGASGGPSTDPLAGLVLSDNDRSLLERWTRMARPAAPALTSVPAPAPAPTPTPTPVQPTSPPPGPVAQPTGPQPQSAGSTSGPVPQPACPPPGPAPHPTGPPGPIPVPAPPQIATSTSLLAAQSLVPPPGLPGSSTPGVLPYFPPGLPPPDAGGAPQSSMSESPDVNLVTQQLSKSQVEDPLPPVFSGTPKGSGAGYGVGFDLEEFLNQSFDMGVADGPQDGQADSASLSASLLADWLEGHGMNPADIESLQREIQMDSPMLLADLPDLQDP

Calls of active or inactive are those of the source. The rule behind the calls is not given here.

T1 sequence (P27361 whole entry, looked up): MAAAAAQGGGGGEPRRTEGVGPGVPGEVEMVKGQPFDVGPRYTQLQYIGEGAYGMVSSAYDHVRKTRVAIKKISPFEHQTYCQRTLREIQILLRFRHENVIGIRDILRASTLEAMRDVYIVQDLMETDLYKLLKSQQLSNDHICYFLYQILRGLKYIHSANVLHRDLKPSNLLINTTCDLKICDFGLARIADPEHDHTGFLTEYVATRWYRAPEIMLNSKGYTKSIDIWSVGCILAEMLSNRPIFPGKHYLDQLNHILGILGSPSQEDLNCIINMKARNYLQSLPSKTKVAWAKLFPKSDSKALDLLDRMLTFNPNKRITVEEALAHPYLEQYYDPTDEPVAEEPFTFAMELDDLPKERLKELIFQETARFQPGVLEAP
T1 sequence (P28482 whole entry, looked up): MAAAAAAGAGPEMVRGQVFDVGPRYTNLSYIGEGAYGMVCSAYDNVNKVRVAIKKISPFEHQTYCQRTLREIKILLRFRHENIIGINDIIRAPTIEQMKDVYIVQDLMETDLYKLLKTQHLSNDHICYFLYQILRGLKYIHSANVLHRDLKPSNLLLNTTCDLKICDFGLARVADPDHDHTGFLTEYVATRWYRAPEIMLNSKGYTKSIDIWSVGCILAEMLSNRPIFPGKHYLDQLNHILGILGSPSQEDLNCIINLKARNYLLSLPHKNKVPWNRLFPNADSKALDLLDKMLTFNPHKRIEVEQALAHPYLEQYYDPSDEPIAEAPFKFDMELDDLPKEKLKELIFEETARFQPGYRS

In the case of `CCOc1cc(C(=O)N2CCC(N3CCN(C)CC3)CC2)ccc1Nc1ncc2c(n1)N(C1CCCC1)c1ccccc1C(=O)N2C`, the inhibition entry in experiment [1] and in experiment [2] was “inactive” each time. In experiment [3], the inhibition result is “Active”.

Turning to `COc1cc(C(=O)N2CCC(N3CCN(C)CC3)CC2)ccc1Nc1ncc2c(n1)N1CCc3cccc(c31)C(=O)N2C`, the EC50 (in general, the concentration at which the effect is half-maximal) in experiment [4] is above 30 µM.
